Series [1] concerns the target T1, Alpha-1D adrenergic receptor (Homo sapiens, UniProt P25100). Further: in other assays of this panel Not Active means under 50% inhibition at 10 µM.
T1 sequence (P25100 whole entry): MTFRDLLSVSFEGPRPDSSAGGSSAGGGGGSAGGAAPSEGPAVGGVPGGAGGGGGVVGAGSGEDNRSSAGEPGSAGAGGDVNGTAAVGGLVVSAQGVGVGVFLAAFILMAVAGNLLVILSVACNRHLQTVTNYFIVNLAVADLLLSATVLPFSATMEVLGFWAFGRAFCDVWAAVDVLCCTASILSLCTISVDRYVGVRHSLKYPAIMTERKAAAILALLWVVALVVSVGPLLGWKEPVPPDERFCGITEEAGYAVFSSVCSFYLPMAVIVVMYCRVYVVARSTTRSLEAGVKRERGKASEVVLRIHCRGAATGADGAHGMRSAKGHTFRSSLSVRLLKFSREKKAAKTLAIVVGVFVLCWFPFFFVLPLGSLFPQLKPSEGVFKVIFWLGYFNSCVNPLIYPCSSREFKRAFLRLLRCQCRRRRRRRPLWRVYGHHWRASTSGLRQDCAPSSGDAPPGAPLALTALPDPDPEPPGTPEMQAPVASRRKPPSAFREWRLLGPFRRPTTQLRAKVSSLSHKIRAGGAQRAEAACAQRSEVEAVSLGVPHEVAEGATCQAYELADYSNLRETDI
In kind it is cell membranes, HEK293, Membrane.

Series [2] concerns the target Tyrosine-protein kinase Lck (Homo sapiens, UniProt P06239). Nature of the series: DRUGMATRIX: Protein Tyrosine Kinase, LCK enzyme inhibition (substrate: Poly(Glu:Tyr)). In kind it is cell-based, Insect cells. The settings on record: insect cells; Not Active = under 50% inhibition at 10 µM.
The target of series [3] is T2, Cysteinyl leukotriene receptor 1 (Homo sapiens, UniProt Q9Y271). Further: in other assays of this panel Not Active means under 50% inhibition at 10 µM.
T2 sequence (Q9Y271 whole entry): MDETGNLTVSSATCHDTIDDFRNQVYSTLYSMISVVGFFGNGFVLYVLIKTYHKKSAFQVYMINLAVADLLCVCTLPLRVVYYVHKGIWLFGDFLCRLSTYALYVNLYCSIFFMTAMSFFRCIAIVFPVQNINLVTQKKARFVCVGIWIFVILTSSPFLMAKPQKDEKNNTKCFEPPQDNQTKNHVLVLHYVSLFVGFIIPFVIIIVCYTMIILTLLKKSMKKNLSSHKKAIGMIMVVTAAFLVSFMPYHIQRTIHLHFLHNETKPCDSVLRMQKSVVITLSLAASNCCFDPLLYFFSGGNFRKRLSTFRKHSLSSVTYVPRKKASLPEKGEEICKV
In kind it is cell membranes, CHO-K1, Membrane. The settings on record: cho-k1.

A short description of series [4]: DRUGMATRIX: ATPase, Na+/K+ enzyme inhibition (substrate: ATP). In kind it is tissue-based, Sus scrofa, Heart. The settings on record: Not Active = under 50% inhibition at 10 µM.
In another series the target is T3, Neutrophil elastase (Homo sapiens, UniProt P08246).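 Further: inhibition of neutrophil elastase enzyme activity, measured with a p-nitroanilide-linked peptide substrate; in other assays of this panel Not Active means under 50% inhibition at 10 µM.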
T3 sequence (P08246 whole entry): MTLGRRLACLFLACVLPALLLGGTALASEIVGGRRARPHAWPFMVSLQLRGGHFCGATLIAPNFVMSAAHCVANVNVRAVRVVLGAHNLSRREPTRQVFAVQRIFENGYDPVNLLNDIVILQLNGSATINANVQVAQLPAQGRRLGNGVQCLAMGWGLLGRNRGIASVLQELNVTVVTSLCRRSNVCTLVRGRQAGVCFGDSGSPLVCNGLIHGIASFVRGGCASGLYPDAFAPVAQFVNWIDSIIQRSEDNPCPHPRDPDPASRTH
In kind it is tissue-based.

The target in a further series is Cytochrome P450 2E1 (Homo sapiens, UniProt P05181). The settings on record: bti-tn-5b1-4. Further: in other assays of this panel Not Active means under 50% inhibition at 10 µM.
Sequence of Cytochrome P450 2E1 (P05181 whole entry): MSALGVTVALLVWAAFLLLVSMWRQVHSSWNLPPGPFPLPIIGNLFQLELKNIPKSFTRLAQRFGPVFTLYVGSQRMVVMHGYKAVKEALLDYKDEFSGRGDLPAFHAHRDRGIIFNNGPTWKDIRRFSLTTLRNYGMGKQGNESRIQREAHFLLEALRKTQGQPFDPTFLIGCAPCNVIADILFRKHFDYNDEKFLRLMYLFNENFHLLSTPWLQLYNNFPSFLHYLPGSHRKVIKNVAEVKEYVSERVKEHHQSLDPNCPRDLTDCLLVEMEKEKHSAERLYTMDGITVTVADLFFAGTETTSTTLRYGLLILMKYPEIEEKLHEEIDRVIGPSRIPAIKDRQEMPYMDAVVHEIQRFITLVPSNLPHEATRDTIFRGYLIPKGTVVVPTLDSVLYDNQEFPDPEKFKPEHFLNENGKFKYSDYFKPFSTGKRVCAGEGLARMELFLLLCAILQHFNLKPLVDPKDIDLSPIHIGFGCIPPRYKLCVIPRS
Series [5] deals with T4, Amine oxidase [flavin-containing] A (Homo sapiens, UniProt P21397).
T4 sequence (P21397 whole entry): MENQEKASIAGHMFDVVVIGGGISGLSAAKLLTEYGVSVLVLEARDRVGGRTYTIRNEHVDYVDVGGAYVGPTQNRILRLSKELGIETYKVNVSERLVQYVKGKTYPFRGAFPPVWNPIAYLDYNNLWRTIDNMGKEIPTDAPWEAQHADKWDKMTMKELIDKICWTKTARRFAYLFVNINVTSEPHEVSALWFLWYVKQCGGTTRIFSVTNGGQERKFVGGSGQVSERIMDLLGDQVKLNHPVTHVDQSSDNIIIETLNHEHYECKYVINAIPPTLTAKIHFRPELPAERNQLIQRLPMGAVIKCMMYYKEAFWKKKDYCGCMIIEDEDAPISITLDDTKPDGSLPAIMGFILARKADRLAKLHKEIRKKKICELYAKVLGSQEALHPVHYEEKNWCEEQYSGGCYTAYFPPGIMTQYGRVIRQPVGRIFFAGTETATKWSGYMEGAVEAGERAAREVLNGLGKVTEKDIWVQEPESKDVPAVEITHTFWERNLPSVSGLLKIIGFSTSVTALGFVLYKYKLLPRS
Nature of the series: DRUGMATRIX: Monoamine Oxidase MAO-A enzyme inhibition (substrate: Kynuramine). The arrangement: species or system BTI-TN-5B1-4. The settings on record: Not Active = under 50% inhibition at 10 µM.

Broadly, the IC50 is the concentration that inhibits the measured activity by half. In general, Ki refers to a dissociation constant, usually derived from enzyme kinetics or from competition with a known ligand.

Sequence of Tyrosine-protein kinase Lck (P06239 whole entry): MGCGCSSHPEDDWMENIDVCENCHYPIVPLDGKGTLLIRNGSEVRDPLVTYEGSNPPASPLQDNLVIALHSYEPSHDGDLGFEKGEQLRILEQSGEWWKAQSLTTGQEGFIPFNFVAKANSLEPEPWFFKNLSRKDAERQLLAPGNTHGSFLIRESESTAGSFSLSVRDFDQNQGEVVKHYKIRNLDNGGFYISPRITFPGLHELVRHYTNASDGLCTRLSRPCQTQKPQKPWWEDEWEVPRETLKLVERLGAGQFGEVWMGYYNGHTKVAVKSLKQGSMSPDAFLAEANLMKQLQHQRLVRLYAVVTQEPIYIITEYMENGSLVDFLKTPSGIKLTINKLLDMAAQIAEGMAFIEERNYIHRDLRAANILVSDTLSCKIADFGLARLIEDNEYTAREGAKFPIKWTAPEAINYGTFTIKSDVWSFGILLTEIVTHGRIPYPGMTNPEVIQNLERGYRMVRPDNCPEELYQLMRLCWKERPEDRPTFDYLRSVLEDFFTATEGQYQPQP

As for `CC(N)Cc1c[nH]c2ccc(OCc3cccs3)cc12` (stereo unspecified) [BW-723C86], the IC50 entry (in series [1] (hek293); in series [2]; in series [3]; in series [4]; on Neutrophil elastase; against Cytochrome P450 2E1) was “Not Active” in each case. In series [5] (bti-tn-5b1-4), the IC50 result was “Not Active”. Further, the Ki entry (in series [4]; on Cytochrome P450 2E1) was “Not Active” each time.
As to `c1ccc2c(c1)Nc1ccccc1S2` [PHENOTHIAZINE], the IC50 result (in series [1] (hek293); in series [2]; in series [3]; in series [4]; at Neutrophil elastase; at Cytochrome P450 2E1) was “Not Active” throughout. For the same molecule, the IC50 in series [5] (read-out: IC50) was determined as 592 nM. Besides, the Ki entry (in series [4]; at Cytochrome P450 2E1) was “Not Active” each time.
POVIDONE: the IC50 result (in series [1] (hek293); in series [2]; in series [3]; in series [4]; on Neutrophil elastase; on Cytochrome P450 2E1) was “Not Active” each time. In addition, in series [5] (bti-tn-5b1-4), the IC50 result was “Not Active”. The Ki entry (in series [1] (hek293); in series [2]; in series [3]; in series [4]; at Neutrophil elastase; on Cytochrome P450 2E1) was “Not Active” each time. The inhibition constant (Ki) result in series [5] (bti-tn-5b1-4) was “Not Active”.
In the case of `CCO` [ALCOHOL], the IC50 result (in series [1] (hek293); in series [2]; in series [3]; in series [4]; at Neutrophil elastase; on Cytochrome P450 2E1) was “Not Active” each time. The IC50 result in series [5] (bti-tn-5b1-4) is listed as “Not Active”. The Ki entry (in series [4]; on Cytochrome P450 2E1) was “Not Active” throughout.
As for `Clc1cc(Cl)c(OCC#CI)cc1Cl` [HALOPROGIN], the concentration for half-maximal inhibition (IC50) entry (in series [1] (hek293); in series [2]; in series [3]; in series [4]; against Neutrophil elastase; against Cytochrome P450 2E1) was “Not Active” in each case. The IC50 entry in series [5] (bti-tn-5b1-4) is on record as “Not Active”. Moreover, the inhibition constant Ki result (in series [4]; at Cytochrome P450 2E1) was “Not Active” throughout.
On to CHROMIC CHLORIDE, for which the half-maximal inhibitory concentration (IC50) entry (in series [1] (hek293); in series [2]; in series [3]; in series [4]; against Neutrophil elastase; against Cytochrome P450 2E1) was “Not Active” throughout. In series [5] (bti-tn-5b1-4), the IC50 result is “Not Active”. In addition, the Ki result (in series [1] (hek293); in series [2]; in series [3]; in series [4]; on Neutrophil elastase; at Cytochrome P450 2E1) was “Not Active” throughout. The Ki result in series [5] (bti-tn-5b1-4) is on record as “Not Active”.
Consider `Nc1ccc(Cc2ccc(N)cc2)cc1`, for which the IC50 entry (in series [1] (hek293); in series [2]; in series [3]; in series [4]; against Neutrophil elastase; at Cytochrome P450 2E1) was “Not Active” in each case. In addition, the IC50 entry in series [5] (bti-tn-5b1-4) was “Not Active”. Also, the Ki result (in series [4]; on Cytochrome P450 2E1) was “Not Active” in each case.
Turning to `COc1cc([C@@H]2c3cc4c(cc3[C@H](O)[C@H]3COC(=O)[C@H]23)OCO4)cc(OC)c1OC` [PODOFILOX], the IC50 result (in series [1] (hek293); in series [2]; in series [3]; in series [4]; at Neutrophil elastase; against Cytochrome P450 2E1) was “Not Active” in each case. In series [5] (bti-tn-5b1-4), the IC50 entry is given as “Not Active”. In addition, the Ki result (in series [4]; on Cytochrome P450 2E1) was “Not Active” in each case.
For `OC[C@H]1OC2C3[C@@H](CO)OC(O[C@H]4[C@H](O)[C@@H](O)[C@@H](O[C@H]5[C@H](O)[C@@H](O)[C@@H](O[C@H]6[C@H](O)[C@@H](O)[C@@H](O[C@H]7[C@H](O)[C@@H](O)[C@@H](O[C@H]8[C@H](O)[C@@H](O)[C@@H](O[C@H]9[C@H](O)[C@@H](O)C(OC1[C@H](O)[C@H]2O)O[C@@H]9CO)O[C@@H]8CO)O[C@@H]7CO)O[C@@H]6CO)O[C@@H]5CO)O[C@@H]4CO)[C@H](O)[C@H]3O`, the half-inhibitory concentration (IC50) result (in series [1] (hek293); in series [2]; in series [3]; in series [4]; on Neutrophil elastase; against Cytochrome P450 2E1) was “Not Active” in each case. In series [5] (bti-tn-5b1-4), the IC50 entry is reported as “Not Active”. The inhibitory constant (Ki) result (in series [4]; at Cytochrome P450 2E1) was “Not Active” throughout.
For the molecule `Nc1ccc(C(=O)O)c(O)c1` [AMINOSALICYLIC ACID], the IC50 entry (in series [1] (hek293); in series [2]; in series [3]; in series [4]; on Neutrophil elastase; on Cytochrome P450 2E1) was “Not Active” in each case. Also, the IC50 result in series [5] (bti-tn-5b1-4) is “Not Active”. Moreover, the Ki result (in series [4]; at Cytochrome P450 2E1) was “Not Active” in each case.
In the case of `O=c1[nH]cnc2c1ncn2[C@H]1CC[C@@H](CO)O1` [DIDANOSINE], the IC50 result (in series [1] (hek293); in series [2]; in series [3]; in series [4]; against Neutrophil elastase; at Cytochrome P450 2E1) was “Not Active” in each case. Besides, the half-inhibitory concentration (IC50) entry in series [5] (bti-tn-5b1-4) is given as “Not Active”. Moreover, the Ki entry (in series [4]; on Cytochrome P450 2E1) was “Not Active” each time.
As for `CCCCCCNC(=O)n1cc(F)c(=O)[nH]c1=O` [CARMOFUR], the IC50 result (in series [1] (hek293); in series [2]; in series [3]; in series [4]; on Neutrophil elastase; against Cytochrome P450 2E1) was “Not Active” each time. Besides, the IC50 result in series [5] (bti-tn-5b1-4) is reported as “Not Active”. Besides, the Ki entry (in series [4]; at Cytochrome P450 2E1) was “Not Active” in each case.
Regarding `C#C[C@]1(O)CC[C@H]2[C@@H]3CCC4=CC(=O)CC[C@@H]4[C@H]3CC[C@@]21C` [NORETHINDRONE], the IC50 entry (in series [1] (hek293); in series [2]; in series [3]; in series [4]; against Neutrophil elastase; on Cytochrome P450 2E1) was “Not Active” in each case. Further, in series [5] (bti-tn-5b1-4), the IC50 entry was “Not Active”. Moreover, the Ki entry (in series [4]; on Cytochrome P450 2E1) was “Not Active” each time.
With `Cl.NC[C@H]1CC[C@H](C(=O)Oc2ccc(CCC(=O)O)cc2)CC1` [CETRAXATE HYDROCHLORIDE], the IC50 entry (in series [1] (hek293); in series [2]; in series [3]; in series [4]; on Neutrophil elastase; at Cytochrome P450 2E1) was “Not Active” each time. Besides, the IC50 entry in series [5] (bti-tn-5b1-4) is on record as “Not Active”. In addition, the Ki result (in series [4]; on Cytochrome P450 2E1) was “Not Active” in each case.
Turning to `CC(C)Cn1cnc2c(N)nc3ccccc3c21` [IMIQUIMOD], the IC50 in series [1] (read-out: IC50) is 2620 nM; in series [2], “Not Active”; in series [3], “Not Active”; in series [4] it was “Not Active”; against Neutrophil elastase, “Not Active”; at Cytochrome P450 2E1, “Not Active”. Besides, the IC50 entry in series [5] (bti-tn-5b1-4) is given as “Not Active”. The figures for the inhibitory constant (Ki) (in series [1] (read-out: Ki); in series [4]; at Cytochrome P450 2E1) were 1290 nM, “Not Active” and “Not Active”, respectively.

Source of the values: ChEMBL document CHEMBL1909046, “DrugMatrix in vitro pharmacology data”.
